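How tested: cells in 96-well plates exposed to compound for 48 hours at five concentrations. GI50 marks 50% less growth. Definition used: TGI = concentration required for complete inhibition of growth.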
Tests used:
Assay in all cases: growth of human tumour cells (NCI), 48 h
HCC-2998 colon = tested on: HCC-2998 colon
SK-MEL-2 melanoma = tested on: SK-MEL-2 melanoma
U251 CNS = tested on: U251 CNS
A498 renal = tested on: A498 renal
SF-268 CNS = tested on: SF-268 CNS
SF-539 CNS = tested on: SF-539 CNS
RPMI-8226 leukemia = tested on: RPMI-8226 leukemia
MALME-3M melanoma = tested on: MALME-3M melanoma
MCF7 breast = tested on: MCF7 breast
BT-549 breast = tested on: BT-549 breast
SNB-75 CNS = tested on: SNB-75 CNS
HT29 colon = tested on: HT29 colon
SW-620 colon = tested on: SW-620 colon
EKVX NSCLC = tested on: EKVX NSCLC
HOP-62 NSCLC = tested on: HOP-62 NSCLC
UO-31 renal = tested on: UO-31 renal
NCI-H23 lung = tested on: NCI-H23 lung
SR leukemia = tested on: SR leukemia
UACC-62 melanoma = tested on: UACC-62 melanoma
SN12C renal = tested on: SN12C renal
TK-10 renal = tested on: TK-10 renal
CCRF-CEM leukemia = tested on: CCRF-CEM leukemia
OVCAR-4 ovarian = tested on: OVCAR-4 ovarian
IGROV1 ovarian = tested on: IGROV1 ovarian
HS 578T breast = tested on: HS 578T breast
MDA-MB-231 breast = tested on: MDA-MB-231 breast
HCT-116 colon = tested on: HCT-116 colon
SK-MEL-5 melanoma = tested on: SK-MEL-5 melanoma
RXF 393 renal = tested on: RXF 393 renal
UACC-257 melanoma = tested on: UACC-257 melanoma
LOX IMVI melanoma = tested on: LOX IMVI melanoma
SK-MEL-28 melanoma = tested on: SK-MEL-28 melanoma
SF-295 CNS = tested on: SF-295 CNS
OVCAR-5 ovarian = tested on: OVCAR-5 ovarian
KM12 colon = tested on: KM12 colon
M14 melanoma = tested on: M14 melanoma
OVCAR-8 ovarian = tested on: OVCAR-8 ovarian
OVCAR-3 ovarian = tested on: OVCAR-3 ovarian
NCI-H522 lung = tested on: NCI-H522 lung
MDA-MB-435 = tested on: MDA-MB-435
DU-145 prostate = tested on: DU-145 prostate
HL-60(TB) leukemia = tested on: HL-60(TB) leukemia
PC-3 prostate = tested on: PC-3 prostate
SNB-19 CNS = tested on: SNB-19 CNS
HCT-15 colon = tested on: HCT-15 colon
ACHN renal = tested on: ACHN renal
MOLT-4 leukemia = tested on: MOLT-4 leukemia
HOP-92 NSCLC = tested on: HOP-92 NSCLC
T-47D breast = tested on: T-47D breast
786-0 renal = tested on: 786-0 renal
COLO 205 colon = tested on: COLO 205 colon
NCI-H226 lung = tested on: NCI-H226 lung
NCI/ADR-RES ovarian = tested on: NCI/ADR-RES ovarian
NCI-H460 lung = tested on: NCI-H460 lung
CAKI-1 renal = tested on: CAKI-1 renal
A549 NSCLC = tested on: A549 NSCLC
SK-OV-3 ovarian = tested on: SK-OV-3 ovarian
K-562 leukemia = tested on: K-562 leukemia

COc1ccc(C(=O)Nc2ncc(Cc3ccccc3Cl)s2)cc1
GI50 (HCC-2998 colon): 0.24 µM
TGI (HCC-2998 colon): 3.66 µM
GI50 (SK-MEL-2 melanoma): 0.176 µM
TGI (SK-MEL-2 melanoma): 3.83 µM
GI50 (U251 CNS): 0.288 µM
TGI (U251 CNS): 23.1 µM
GI50 (A498 renal): 6.54 µM
TGI (A498 renal): 33.7 µM
GI50 (SF-268 CNS): 1.58 µM
TGI (SF-268 CNS): 58.3 µM
GI50 (SF-539 CNS): 0.179 µM
TGI (SF-539 CNS): 0.842 µM
GI50 (RPMI-8226 leukemia): 0.27 µM
TGI (RPMI-8226 leukemia): > 100 µM
GI50 (MALME-3M melanoma): 1.12 µM
TGI (MALME-3M melanoma): 23.1 µM
GI50 (MCF7 breast): 0.137 µM
TGI (MCF7 breast): > 34.5 µM
GI50 (BT-549 breast): 0.427 µM
TGI (BT-549 breast): 11 µM
GI50 (SNB-75 CNS): 0.201 µM
TGI (SNB-75 CNS): 6.02 µM
GI50 (HT29 colon): 0.128 µM
TGI (HT29 colon): 2.23 µM
GI50 (SW-620 colon): 0.106 µM
TGI (SW-620 colon): > 100 µM
GI50 (EKVX NSCLC): 1.79 µM
TGI (EKVX NSCLC): 38.6 µM
GI50 (HOP-62 NSCLC): 0.667 µM
TGI (HOP-62 NSCLC): 18.7 µM
GI50 (UO-31 renal): 0.696 µM
TGI (UO-31 renal): 38.1 µM
GI50 (NCI-H23 lung): 0.625 µM
TGI (NCI-H23 lung): 30.5 µM
GI50 (SR leukemia): 0.0398 µM
TGI (SR leukemia): > 100 µM
GI50 (UACC-62 melanoma): 0.127 µM
TGI (UACC-62 melanoma): 16.3 µM
GI50 (SN12C renal): 0.309 µM
TGI (SN12C renal): 20.4 µM
GI50 (TK-10 renal): 11.9 µM
TGI (TK-10 renal): 41.1 µM
GI50 (CCRF-CEM leukemia): 0.148 µM
TGI (CCRF-CEM leukemia): > 100 µM
GI50 (OVCAR-4 ovarian): 2.07 µM
TGI (OVCAR-4 ovarian): 30 µM
GI50 (IGROV1 ovarian): 0.486 µM
TGI (IGROV1 ovarian): 26.8 µM
GI50 (HS 578T breast): 0.309 µM
TGI (HS 578T breast): 23.6 µM
GI50 (MDA-MB-231 breast): 0.437 µM
TGI (MDA-MB-231 breast): 20 µM
GI50 (HCT-116 colon): 0.114 µM
TGI (HCT-116 colon): 15.7 µM
GI50 (SK-MEL-5 melanoma): 0.307 µM
TGI (SK-MEL-5 melanoma): 6.44 µM
GI50 (RXF 393 renal): 0.126 µM
TGI (RXF 393 renal): 1.41 µM
GI50 (UACC-257 melanoma): 5.87 µM
TGI (UACC-257 melanoma): > 65.5 µM
GI50 (LOX IMVI melanoma): 0.259 µM
TGI (LOX IMVI melanoma): > 35 µM
GI50 (SK-MEL-28 melanoma): 1.55 µM
TGI (SK-MEL-28 melanoma): > 66.4 µM
GI50 (SF-295 CNS): 0.214 µM
TGI (SF-295 CNS): 6.43 µM
GI50 (OVCAR-5 ovarian): 0.406 µM
TGI (OVCAR-5 ovarian): 22.6 µM
GI50 (KM12 colon): 0.14 µM
TGI (KM12 colon): 23 µM
GI50 (M14 melanoma): 0.162 µM
TGI (M14 melanoma): > 36.6 µM
GI50 (OVCAR-8 ovarian): 0.462 µM
GI50 (OVCAR-3 ovarian): 0.191 µM
TGI (OVCAR-3 ovarian): 5.22 µM
GI50 (NCI-H522 lung): 0.118 µM
TGI (NCI-H522 lung): 0.387 µM
GI50 (MDA-MB-435): 0.0316 µM
TGI (MDA-MB-435): 0.122 µM
GI50 (DU-145 prostate): 0.415 µM
TGI (DU-145 prostate): 14.2 µM
GI50 (HL-60(TB) leukemia): 0.0873 µM
TGI (HL-60(TB) leukemia): 1.95 µM
GI50 (PC-3 prostate): 0.274 µM
TGI (PC-3 prostate): > 68.4 µM
GI50 (SNB-19 CNS): 0.404 µM
TGI (SNB-19 CNS): 19.2 µM
GI50 (HCT-15 colon): 0.0593 µM
TGI (HCT-15 colon): 13.2 µM
GI50 (ACHN renal): 0.502 µM
TGI (ACHN renal): 18.3 µM
GI50 (MOLT-4 leukemia): 0.266 µM
TGI (MOLT-4 leukemia): > 100 µM
GI50 (HOP-92 NSCLC): 11.8 µM
TGI (HOP-92 NSCLC): > 80.2 µM
GI50 (T-47D breast): 2.09 µM
TGI (T-47D breast): > 56.7 µM
GI50 (786-0 renal): 0.4 µM
TGI (786-0 renal): 22.6 µM
GI50 (COLO 205 colon): 0.264 µM
TGI (COLO 205 colon): 1.03 µM
GI50 (NCI-H226 lung): 0.283 µM
TGI (NCI-H226 lung): 2.53 µM
GI50 (NCI/ADR-RES ovarian): 0.145 µM
TGI (NCI/ADR-RES ovarian): 3.79 µM
GI50 (NCI-H460 lung): 0.147 µM
TGI (NCI-H460 lung): 5.2 µM
GI50 (CAKI-1 renal): 0.138 µM
TGI (CAKI-1 renal): 16.6 µM
GI50 (A549 NSCLC): 0.435 µM
TGI (A549 NSCLC): > 47.4 µM
GI50 (SK-OV-3 ovarian): 0.372 µM
TGI (SK-OV-3 ovarian): 16.6 µM
GI50 (K-562 leukemia): 0.06 µM
TGI (K-562 leukemia): > 100 µM
